Measured values from US6448249B1, “Substituted 1,2,4-triazolo[3,4-A]phthalazine derivatives as GABAα5 ligands” (Merck Sharp & Dohme Ltd., priority 1998, dated 2002).
pKi: −log10 of the molar value.

Legend:
[1] = target: T1, human GABAA receptors containing the α5 subunit (Homo sapiens, UniProt P18507+P31644); assay: [3H]-flumazenil (Ro 15-1788) displacement binding assay; conditions: α5β3γ2 stably expressed in Ltk− cells; read-out: Ki value for displacement of [3H]Ro 15-1788 from the α5 subunit of the human GABAA receptor
T1 construct: expressed in transfected cells; host or cells: Ltk- cells (mouse fibroblasts), stably expressing
T1 sequence (P31644 32-462): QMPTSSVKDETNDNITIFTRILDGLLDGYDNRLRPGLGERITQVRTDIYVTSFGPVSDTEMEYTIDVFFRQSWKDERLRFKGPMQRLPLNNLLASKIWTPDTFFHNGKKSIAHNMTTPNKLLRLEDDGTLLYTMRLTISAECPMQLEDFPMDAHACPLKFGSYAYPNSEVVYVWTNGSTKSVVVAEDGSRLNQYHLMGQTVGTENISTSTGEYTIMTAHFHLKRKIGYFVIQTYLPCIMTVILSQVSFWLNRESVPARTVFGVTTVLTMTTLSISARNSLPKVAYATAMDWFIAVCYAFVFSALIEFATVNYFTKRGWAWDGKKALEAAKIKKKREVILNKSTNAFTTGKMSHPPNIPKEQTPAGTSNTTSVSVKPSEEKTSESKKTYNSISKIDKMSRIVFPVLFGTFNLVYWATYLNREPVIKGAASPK
T1 sequence (P28472 26-473 partner): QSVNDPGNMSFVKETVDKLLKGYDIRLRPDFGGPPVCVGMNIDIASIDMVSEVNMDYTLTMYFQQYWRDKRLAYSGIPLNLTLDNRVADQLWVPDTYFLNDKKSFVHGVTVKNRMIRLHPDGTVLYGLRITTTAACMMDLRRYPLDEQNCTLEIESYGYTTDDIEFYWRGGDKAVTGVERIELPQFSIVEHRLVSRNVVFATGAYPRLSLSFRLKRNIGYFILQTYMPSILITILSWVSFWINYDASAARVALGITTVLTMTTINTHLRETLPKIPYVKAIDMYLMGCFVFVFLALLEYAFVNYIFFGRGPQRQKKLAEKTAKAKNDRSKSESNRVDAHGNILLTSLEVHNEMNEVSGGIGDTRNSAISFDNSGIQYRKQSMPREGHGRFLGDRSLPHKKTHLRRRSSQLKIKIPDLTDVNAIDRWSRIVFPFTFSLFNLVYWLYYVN
T1 sequence (P18507 40-467 limits assumed): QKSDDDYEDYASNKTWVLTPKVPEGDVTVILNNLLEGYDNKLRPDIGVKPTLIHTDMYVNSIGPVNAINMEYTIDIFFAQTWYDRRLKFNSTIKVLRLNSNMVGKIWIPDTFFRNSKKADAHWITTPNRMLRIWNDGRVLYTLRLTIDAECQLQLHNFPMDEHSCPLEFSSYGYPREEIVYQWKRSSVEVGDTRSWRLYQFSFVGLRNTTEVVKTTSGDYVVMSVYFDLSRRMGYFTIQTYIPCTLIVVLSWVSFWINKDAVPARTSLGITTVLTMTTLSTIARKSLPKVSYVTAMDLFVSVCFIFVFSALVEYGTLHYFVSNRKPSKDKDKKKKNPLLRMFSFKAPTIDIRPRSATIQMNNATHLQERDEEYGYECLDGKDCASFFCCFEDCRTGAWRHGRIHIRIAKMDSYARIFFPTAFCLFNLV
Procedure: Phosphate buffered saline (PBS).
Assay buffer: 10 mM KH2PO4, 100 mM KCl, pH 7.4 at room temperature.
[^3H]-Flumazenil (18 nM for α1β3γ2 cells; 18 nM for α2β3γ2 cells; 10 nM for α3β3γ2 cells; 10 nM for α5β3γ2 cells) in assay buffer.
Flunitrazepam 100 μM in assay buffer.
Cells resuspended in assay buffer (1 tray to 10 ml).
Supernatant is removed from cells. PBS (approximately 20 ml) is added. The cells are scraped and placed in a 50 ml centrifuge tube. The procedure is repeated with a further 10 ml of PBS to ensure that most of the cells are removed. The cells are pelleted by centrifuging for 20 min at 3000 rpm in a benchtop centrifuge, and then frozen if desired. The pellets are resuspended in 10 ml of buffer per tray (25 cm×25 cm) of cells.
Can be carried out in deep 96-well plates or in tubes. Each tube contains:
50 μl of [^3H]-flumazenil (final concentration for α1β3γ2: 1.8 nM; for α2β3γ2: 1.8 nM; for α3β3γ2: […]; for α5β3γ2: 1.0nM). […]
Assays are incubated for 1 hour at […], then filtered using either a Tomtec or Brandel cell harvester onto GF/B filter followed by 3×3 ml washes with ice cold assay buffer. Filters are dried and counted by liquid scintillation counting. […] Binding parameters are determined by non-linear least squares regression analysis, from which the inhibition constant Ki can be calculated for the test compound.

cognition = assay: rat water maze test (Morris); format: in vivo
Source text: Cognition enhancement can be shown by testing the compound in the Morris watermaze as reported by McNamara and Skelton, Psychobiology, 21:101-108. The functional efficacy at the various receptor subtypes can be calculated using the method disclosed in WO-A-9625948.

[2] = receptor occupancy at the minimum effective dose; format: in vivo; conditions: Rattus norvegicus; at dose of 0.3 mg/kg

pKi [1]	melting point [°C]	Structure (SMILES)	cognition enhancement in the rat water maze test (cognition; demonstrated at 0.3 mg/kg and also at 3 mg/kg)	minimum effective dose for cognition enhancement (cognition; rat water maze) [mg/kg]	receptor occupancy at 0.3 mg/kg [2] [%]
≥ 7.00	–	Cc1cc(-c2nnc3c4ccccc4c(OCc4cn(C)nn4)nn23)no1 [compound of the present invention, 3-(5-methylisoxazol-3-yl)-6-(1-methyl-1,2,3-triazol-4-yl)methyloxy-1,2,4-triazolo[3,4-a]phthalazine]	enhance cognition	0.3	40
–	247.5 to 249	Cc1cc(-c2nnc3c4ccccc4c(OCc4cccc(Br)n4)nn23)no1 [Reference Example 2, 6-(6-Bromopyridin-2-yl)methyloxy-3-(5-methylisoxazol-3-yl)-1,2,4-triazolo[3,4-a]phthalazine]	–	–	–
